Measurements reported in EP4653432A1, “AUTOPHAGY INDUCING COMPOUNDS AND USES THEREOF IN THE PREVENTION OR THERAPY OF DISEASES” (Samsara Therapeutics Inc., priority 2024, dated 2025).
Counter-ions that a name gives are not always drawn.

Tested on: U2OS cell line stably expressing RFP-eGFP-hLC3b (a tandem reporter cell line)
Experiment: Tandem reporter assay (assay to assess autophagic flux)
Assay type: cell-based, Human
Settings: result in words; at different concentrations
Method: Selected compounds of this invention were also assessed for their ability to stimulate autophagy using a U2OS cell line stabling expressing RFP-eGFP-hLC3b (a tandem reporter cell line). During the process of autophagy, the cargo to be degraded is first enveloped by organelles called autophagosomes. These autophagosomes then fuse with lysosomes, causing them to become acidified and their digestive enzymes to become activated. The term "autophagic flux" is used to represent the dynamic process of autophagy: autophagic flux refers to the whole process of autophagy, including autophagosome formation, maturation, fusion with lysosomes, subsequent breakdown, and the release of macromolecules back into the cytosol (Zhang XJ, Chen S, Huang KX, Le WD. Why should autophagic flux be assessed? Acta Pharmacol Sin. 2013 May; 34(5): 595-9. doi: 10.1038/aps.2012.184. Epub 2013 Mar 11). Compounds that stimulate autophagic flux stimulate the dynamic process of autophagy (the whole process of autophagy). […] Using a fluorescent microscope, the number of autophagosomes and autolysosomes can be counted, allowing for the monitoring of both the induction of autophagy (total puncta count) and the rate of autophagic flux (ratio of red-only to red-and-green puncta). The influence of small molecules on autophagy induction and flux can be assessed using this system by comparison to a non-treated control. […]

Compound	number of RFP-only puncta (autolysosomes) relative to a DMSO-treated control (non-treated control)
CC(C)N(C(=O)c1csc(-c2cnc3ccccn23)n1)[C@@H]1CCNC1 [SLN5-X-0978, (R)-2-(imidazo[1,2-a]pyridin-3-yl)-N-Isopropyl-N-(pyrrolidin-3-yl) thiazole-4-carboxamide hydrochloride]	Particularly good results
CC(C)c1ccc(-n2cc(C#N)c(-c3nc(C(=O)N(C(C)C)C4CCNCC4)cs3)n2)nc1.Cl [Compound E, N-isopropyl-N-4-piperidyl-2-[4-cyano-1-(5-isopropyl-2-pyridyl)-3-pyrazolyl]-1,3-thiazole-4-carboxamide hydrochloride]	Particularly good results
